Assay results reported in patent publication US20130089641A1.
Read-outs that look alike come from different tables or passages of the source. Values belong to the compound of their own block, whether it stands above or below them.

Experiments:
[1] = NaVC consumption on ultra heat treat of the formulated soymilk powder; format: physicochemical
Text: As shown in Table (26), the formulated soymilk powder consists of NaVC (sodium vitamin C), lactic acid bacteria, saccharomycete, and maltodextrin, in which the lactic acid bacteria is NTU 101 lactic acid bacteria powder, the saccharomycete is yeast powder with vitamin B complex. Moreover, it must note that, when manufacturing the formulated soymilk powder, it must pre-add 25% NaVC in the formulated soymilk powder because there has 25% NaVC consumption when processing ultra heat treat of the formulated soymilk powder.

[2] = first experiment: in vitro digestion and dialysis of soymilk with ascorbic acid or calcium ascorbate, releasable iron; format: in vitro ADME
Text: For improving that, a first experiment in the present invention is done, that is, to respectively add the ascorbic acid and the calcium ascorbate into the soymilk and determine the concentration of the releasable iron thereof. Please refer to following Table (1), which is a statistical table of the releasable iron concentration in the soymilk.

[3] = fifth experiment: releasable iron in soymilk with 30 ppm ferrous gluconate and VC, NaVC, KVC or CaVC additive; format: in vitro ADME; details: for average iron release rate / average relative release rate: soymilk with 30 ppm ferrous gluconate
[4] = second experiment: releasable iron in soymilk with iron salts added by concentration gradients; details: for initially inhibiting concentration: point where releasable iron starts to rise with additive dosage
[5] = soymilk with 20 ppm iron as ferrous sulfate
[6] = aqueous solution of ferrous sulfate with 100 ppm iron ions
[7] = sixth experiment: releasable iron in soymilk with 30 ppm ferrous gluconate and sodium isoascorbate additive; format: in vitro ADME; details: soymilk with 30 ppm ferrous gluconate
Text: However, everyone knows that vitamin C includes a stereoisomer called isoascorbic acid, and the physical and chemical properties of the isoascorbic acid are similar to the vitamin C.

[8] = background, researches; cited from earlier work
[9] = average additive dosage of ascorbic acid ions 25 ppm
[10] = average additive dosage of ascorbic acid ions 50 ppm
[11] = average additive dosage of ascorbic acid ions 75 ppm
[12] = average additive dosage of ascorbic acid ions 100 ppm
[13] = average additive dosage of ascorbic acid ions 125 ppm
[14] = average additive dosage of ascorbic acid ions 150 ppm
[15] = average additive dosage of ascorbic acid ions 175 ppm
[16] = average additive dosage of ascorbic acid ions 200 ppm
[17] = average additive dosage of ascorbic acid ions 225 ppm
[18] = average additive dosage of ascorbic acid ions 250 ppm
[19] = average additive dosage of ascorbic acid ions 275 ppm
[20] = average additive dosage of ascorbic acid ions 300 ppm
[21] = average additive dosage of ascorbic acid ions 325 ppm
[22] = average additive dosage of ascorbic acid ions 350 ppm
[23] = average additive dosage of ascorbic acid ions 375 ppm
[24] = average additive dosage of ascorbic acid ions 400 ppm
[25] = average additive dosage of ascorbic acid ions 425 ppm
[26] = average additive dosage of ascorbic acid ions 450 ppm
[27] = average additive dosage of ascorbic acid ions 475 ppm
[28] = average additive dosage of ascorbic acid ions 500 ppm
[29] = sodium isoascorbate 28.6 mg/100 mL
[30] = sodium isoascorbate 57.1 mg/100 mL
[31] = sodium isoascorbate 85.7 mg/100 mL
[32] = sodium isoascorbate 114.3 mg/100 mL
[33] = sodium isoascorbate 142.9 mg/100 mL
[34] = sodium isoascorbate 171.4 mg/100 mL
[35] = sodium isoascorbate 200.0 mg/100 mL
[36] = sodium isoascorbate 228.6 mg/100 mL
[37] = sodium isoascorbate 257.1 mg/100 mL
[38] = sodium isoascorbate 285.7 mg/100 mL
[39] = sodium isoascorbate 314.3 mg/100 mL
[40] = sodium isoascorbate 342.9 mg/100 mL
[41] = sodium isoascorbate 371.4 mg/100 mL
[42] = sodium isoascorbate 400.0 mg/100 mL
[43] = sodium isoascorbate 428.6 mg/100 mL
[44] = sodium isoascorbate 457.1 mg/100 mL
[45] = sodium isoascorbate 485.7 mg/100 mL
[46] = sodium isoascorbate 514.3 mg/100 mL
[47] = sodium isoascorbate 542.9 mg/100 mL
[48] = sodium isoascorbate 571.4 mg/100 mL
[49] = soymilk, equivalent additive dosage 175 mg/100 mL
[50] = soymilk with 30 ppm iron as ferrous gluconate

Compound: O=C1O[C@H]([C@@H](O)CO)C([O-])=C1O.[Na+] [NaVC, sodium ascorbate]
- NaVC consumption when processing ultra heat treat [1]: 25%

Compound: O=C1O[C@H]([C@@H](O)CO)C(O)=C1O [VC, ascorbic acid]
- iron release rate ([2]; 75 mg/100 mL): 51.75%
- relative release rate ([2]; 75 mg/100 mL): 102.7%
- releasable iron ([2]; 75 mg/100 mL): 2.07 ppm
- iron release rate ([2]; 175 mg/100 mL): 78.75%
- relative release rate ([2]; 175 mg/100 mL): 156.28%
- releasable iron ([2]; 175 mg/100 mL): 3.15 ppm

Compound: O.O.O.O.O.O.O.O=S(=O)([O-])[O-].[Fe+2] [ferrous sulfate, iron(II) sulfate heptahydrate]
- concentration of releasable iron ([4]; additive dosage of iron 10 ppm): 1.56 ppm
- concentration of releasable iron ([4]; additive dosage of iron 20 ppm): 1.76 ppm
- concentration of releasable iron ([4]; additive dosage of iron 30 ppm): 2.47 ppm
- concentration of releasable iron ([4]; additive dosage of iron 40 ppm): 2.62 ppm
- concentration of releasable iron ([4]; additive dosage of iron 50 ppm): 2.75 ppm
- concentration of releasable iron ([4]; additive dosage of iron 60 ppm): 3.27 ppm
- concentration of releasable iron ([4]; additive dosage of iron 70 ppm): 3.72 ppm
- initially inhibiting concentration [4]: 20 ppm
- releasable iron concentration before adding the ascorbic acid iron [5]: 1.90 ppm
- the most effective additive dosage for ascorbic acid iron [5]: 100 mg/100 ml
- release promoting rate of iron ([5]; after/before adding the ascorbic acid iron): 389%
- releasable iron concentration after adding the ascorbic acid iron ([5]; at the most effective additive dosage 100): 7.54 ppm
- iron ions naturally inhibited [6]: 49.61%
- iron ions released after processing by gastric and intestinal fluid [6]: 50.39%

Compound: calcium ascorbate [CaVC]
- iron release rate [2, 49]: 48.75%
- releasable iron [2, 49]: 1.95 ppm
- relative release rate ([2]; soymilk, equivalent additive dosage 175 mg/100 mL, relative to ferrous sulfate aqueous solution): 96.75%

Compound: ferrous gluconate
- releasable iron concentration before adding the ascorbic acid iron [3, 50]: 2.08 ppm
- the most effective additive dosage for ascorbic acid iron [3, 50]: 50 mg/100 ml
- release promoting rate of iron ([3]; soymilk with 30 ppm iron as ferrous gluconate, after/before adding the ascorbic acid iron): 458%
- releasable iron concentration after adding the ascorbic acid iron ([3]; soymilk with 30 ppm iron as ferrous gluconate, at the most effective additive dosage 50): 9.53 ppm
- concentration of releasable iron ([4]; additive dosage of iron 10 ppm): 1.61 ppm
- concentration of releasable iron ([4]; additive dosage of iron 20 ppm): 2.05 ppm
- concentration of releasable iron ([4]; additive dosage of iron 30 ppm): 2.08 ppm
- concentration of releasable iron ([4]; additive dosage of iron 40 ppm): 2.68 ppm
- concentration of releasable iron ([4]; additive dosage of iron 50 ppm): 3.15 ppm
- concentration of releasable iron ([4]; additive dosage of iron 60 ppm): 4.06 ppm
- concentration of releasable iron ([4]; additive dosage of iron 70 ppm): 3.98 ppm
- concentration of releasable iron ([4]; additive dosage of iron 75 ppm): 3.87 ppm
- initially inhibiting concentration [4]: 30 ppm

Compound: heme iron
- average absorption rate [8]: 25%

Continued, values first:

- average iron release rate [3, 9]: 16.90%
- average relative release rate [3, 9]: 33.55%
- average iron release rate [3, 10]: 23.17%
- average relative release rate [3, 10]: 45.97%
- average iron release rate [3, 11]: 27.88%
- average relative release rate [3, 11]: 55.33%
- average iron release rate [3, 12]: 32.08%
- average relative release rate [3, 12]: 63.67%
- average iron release rate [3, 13]: 33.35%
- average relative release rate [3, 13]: 66.18%
- average iron release rate [3, 14]: 34.92%
- average relative release rate [3, 14]: 69.30%
- average iron release rate [3, 15]: 35.85%
- average relative release rate [3, 15]: 71.14%
- average iron release rate [3, 16]: 36.86%
- average relative release rate [3, 16]: 73.15%
- average iron release rate [3, 17]: 38.23%
- average relative release rate [3, 17]: 75.86%
- average iron release rate [3, 18]: 39.40%
- average relative release rate [3, 18]: 78.18%
- average iron release rate [3, 19]: 40.57%
- average relative release rate [3, 19]: 80.51%
- average iron release rate [3, 20]: 42.29%
- average relative release rate [3, 20]: 83.93%
- average iron release rate [3, 21]: 43.63%
- average relative release rate [3, 21]: 86.59%
- average iron release rate [3, 22]: 44.67%
- average relative release rate [3, 22]: 88.66%
- average iron release rate [3, 23]: 45.61%
- average relative release rate [3, 23]: 90.52%
- average iron release rate [3, 24]: 46.28%
- average relative release rate [3, 24]: 91.85%
- average iron release rate [3, 25]: 47.22%
- average relative release rate [3, 25]: 93.72%
- average iron release rate [3, 26]: 47.86%
- average relative release rate [3, 26]: 94.99%
- average iron release rate [3, 27]: 48.99%
- average relative release rate [3, 27]: 97.23%
- average iron release rate [3, 28]: 50.01%
- average relative release rate [3, 28]: 99.24%
Compound: O=C1O[C@H]([C@@H](O)CO)C(O)=C1O [ascorbic acid ions]

- release promoting rate for iron compared with ascorbic acid ions ([7]; sodium isoascorbate additive): almost the same
Compound: O=C1O[C@H]([C@H](O)CO)C(O)=C1O [isoascorbic acid ions]

- iron release rate [7, 29]: 23.37%
- relative release rate [7, 29]: 46.37%
- releasable iron concentration [7, 29]: 7.01 ppm
- iron release rate [7, 30]: 28.20%
- relative release rate [7, 30]: 55.96%
- releasable iron concentration [7, 30]: 8.46 ppm
- iron release rate [7, 31]: 33.67%
- relative release rate [7, 31]: 66.81%
- releasable iron concentration [7, 31]: 10.10 ppm
- iron release rate [7, 32]: 34.23%
- relative release rate [7, 32]: 67.94%
- releasable iron concentration [7, 32]: 10.27 ppm
- iron release rate [7, 33]: 36.17%
- relative release rate [7, 33]: 71.77%
- releasable iron concentration [7, 33]: 10.85 ppm
- iron release rate [7, 34]: 38.73%
- relative release rate [7, 34]: 76.87%
- releasable iron concentration [7, 34]: 11.62 ppm
- iron release rate [7, 35]: 41.53%
- relative release rate [7, 35]: 82.42%
- releasable iron concentration [7, 35]: 12.46 ppm
- iron release rate [7, 36]: 41.90%
- relative release rate [7, 36]: 83.15%
- releasable iron concentration [7, 36]: 12.57 ppm
- iron release rate [7, 37]: 43.20%
- relative release rate [7, 37]: 85.73%
- releasable iron concentration [7, 37]: 12.96 ppm
- iron release rate [7, 38]: 45.80%
- relative release rate [7, 38]: 90.89%
- releasable iron concentration [7, 38]: 13.74 ppm
- iron release rate [7, 39]: 46.30%
- relative release rate [7, 39]: 91.88%
- releasable iron concentration [7, 39]: 13.89 ppm
- iron release rate [7, 40]: 47.77%
- relative release rate [7, 40]: 94.79%
- releasable iron concentration [7, 40]: 14.33 ppm
- iron release rate [7, 41]: 48.60%
- relative release rate [7, 41]: 96.45%
- releasable iron concentration [7, 41]: 14.58 ppm
- iron release rate [7, 42]: 48.73%
- relative release rate [7, 42]: 96.71%
- releasable iron concentration [7, 42]: 14.62 ppm
- iron release rate [7, 43]: 49.30%
- relative release rate [7, 43]: 97.84%
- releasable iron concentration [7, 43]: 14.79 ppm
- iron release rate [7, 44]: 49.23%
- relative release rate [7, 44]: 97.70%
- releasable iron concentration [7, 44]: 14.77 ppm
- iron release rate [7, 45]: 49.60%
- relative release rate [7, 45]: 98.43%
- releasable iron concentration [7, 45]: 14.88 ppm
- iron release rate [7, 46]: 49.90%
- relative release rate [7, 46]: 99.03%
- releasable iron concentration [7, 46]: 14.97 ppm
- iron release rate [7, 47]: 50.90%
- relative release rate [7, 47]: 101.01%
- releasable iron concentration [7, 47]: 15.27 ppm
- iron release rate [7, 48]: 50.37%
- relative release rate [7, 48]: 99.95%
- releasable iron concentration [7, 48]: 15.11 ppm
Compound: O=C1O[C@H]([C@H](O)CO)C([O-])=C1O.[Na+] [sodium isoascorbate]
